≈ marks a conversion by molar mass, not a printed value. Non-standard residues stand in square brackets, D forms with d. Residues, ends and D or L forms follow the SMILES beside them. *: point of attachment. 12Ado = NCCCCCCCCCCCC(=O)O; Decanoyl = CCCCCCCCCC(=O)*; Orn = NCCC[CH](N)C(=O)O
Key:
[1] = Maximum tolerated dose, single-dose subcutaneous administration; assay type: in vivo; conditions: subcutaneous 20 mg/kg, mice
Protocol: Mortality was monitored for 7 days thereafter. Pharmacokinetic studies were performed as described elsewhere.

K. pneumoniae 1287 = assay: Growth kinetics by absorbance at 620 nm; assay type: cell-based, Klebsiella pneumoniae; conditions: 10 μM Compound B, culture medium
Protocol: FIGS. 6A-B present growth kinetics assessed by measuring the absorbance at 620 nm of E. coli 25922 (FIG. 6A) and K. pneumoniae 1287 (FIG. 6B) in absence or presence of the 10 μM of Compound B (circles denote vehicle control, triangles denote Compound B; error bars represent standard deviations).

Escherichia coli 25922 [2] = assay: Serum survival assay; assay type: cell-based
Protocol: (§1) Serum survival assays were performed using fresh serum from normal mice or human serum from the Israel Blood Bank; samples were pooled and stored in aliquots at −80° C. until use. Time-dependent killing was determined in a final volume of 125 μL consisting of 112.5 μL of serum containing either a tested compound, egg white lysozyme (Amresco), lactoferrin (Vivinal lactoferrin FD; DMV International, Delhi, N.Y.), anti-murine C5/C5a antibody (25 μg/mL; ab194637; Abcam), or their combination, as specified. These solutions were supplemented with 12.5 μL of bacteria suspended in PBS at the desired concentration. After the specified time points of exposure, cultures were subjected to serial 10-fold dilutions in saline (0.85% NaCl) and plated for bacterial enumeration after incubation at 37° C. for an additional 24 hours. In heat-treated experiments, sera were incubated at 56° C. for 30 minutes for protein inactivation. Data were obtained from 3 independent experiments.

[3] = test system: Klebsiella pneumoniae 1287; assay: Serum survival assay; assay type: cell-based; conditions: 10 μM Compound B
Protocol: as §1

Escherichia coli 25922 [4] = assay: Mouse peritonitis-sepsis model; assay type: in vivo
Protocol: A mouse peritonitis-sepsis model was created as described elsewhere. Infection was obtained after intraperitoneal injection of bacteria from a logarithmic-phase culture. Infected mice were treated subcutaneously. The doses were selected to allow comparison with the reference compound and to remain below the maximum tolerated dose after double-dose administration. […] Briefly, mouse peritonitis sepsis model for in vivo studies were performed using male ICR mice ([…]) obtained from Envigo Laboratories (Rehovot, Israel). […] Infection was obtained by intraperitoneal injection of a logarithmic phase culture of E. coli 25922 (1.3±0.2×10^6 CFU permouse in 0.3 ml PBS). […] Infection control mice were injected with the PBS vehicle. Mouse survival was monitored for up to 7 days after treatment. Statistical analyses were performed by paired Student's t test, at α=0.05.

[5] = Hydrophobicity (H) by HPLC elution from C18 column; assay type: physicochemical; conditions: percentage of acetonitrile required for elution
[6] = test system: Pseudomonas aeruginosa 11816; assay: Minimal inhibitory concentration; assay type: cell-based; conditions: Pa 11816, overnight incubation, read-out: MIC
Protocol: (§2) Minimal inhibitory concentrations (MICs) were determined as previously described. […] MICs were determined by microdilution susceptibility testing in 96-well plates (by Nunc) using inocula of 10^5 bacteria per ml. Cell populations were evaluated by optical density measurements at 620 nm and were calibrated against a set of standards. Hundred (100) μl of a bacterial suspension were added to 100 μl of culture medium (control) or to 100 μl of culture medium containing various tested compound concentrations in 2-fold serial dilutions. Inhibition of proliferation was determined by optical density measurements at 620 nm after an incubation period of 24 hours at 37° C. Data were obtained from ≥2 independent experiments performed in duplicate.
(§3) The mean value (±SD) is shown for Compound C; Minimum inhibitory concentration (MIC) of compounds required to inhibit bacterial proliferation after overnight incubation.

[7] = test system: Salmonella enterica serovar Choleraesuis 7308; assay: Minimal inhibitory concentration; assay type: cell-based; conditions: CHOLERAESUIS / SC7308, SC 7308, overnight incubation, read-out: MIC
Protocol: as §2, §3

Escherichia coli ML35p = assay: Minimal inhibitory concentration; assay type: cell-based; conditions: Ec ML35p, overnight incubation
Protocol: as §2, §3

Escherichia coli 25922 [8] = assay: Minimal inhibitory concentration; assay type: cell-based; conditions: Ec 25922, overnight incubation, read-out: MIC
Protocol: as §2, §3

[9] = test system: Salmonella enterica serovar Typhimurium 14028; assay: Minimal inhibitory concentration; assay type: cell-based; conditions: ST 14028, overnight incubation, read-out: MIC
Protocol: as §2, §3

[10] = test system: Klebsiella pneumoniae C2 (carbapenemase 2-producing strain); assay: Minimal inhibitory concentration; assay type: cell-based; conditions: Kp C2, overnight incubation, read-out: MIC
Protocol: as §2, §3

[11] = test system: Klebsiella pneumoniae 1287; assay: Minimal inhibitory concentration; assay type: cell-based; conditions: Kp 1287, overnight incubation, read-out: MIC
Protocol: as §2, §3

[12] = test system: Pseudomonas aeruginosa 11662; assay: Minimal inhibitory concentration; assay type: cell-based; conditions: Pa 11662, overnight incubation, read-out: MIC
Protocol: as §2, §3

E. coli = assay: Minimal bactericidal concentration; assay type: cell-based; conditions: Escherichia coli
[13] = test system: Klebsiella pneumoniae 1287; assay: Mouse peritonitis-sepsis model; assay type: in vivo; conditions: for survival frequency: neutropenic ICR mice infected i.p.
[14] = bacteria exposed in vitro to 5 μM Compound B for 15 minutes, neutropenic mice, 3 days post-infection

With `CCCCCCCCCC(=O)NC(CCCN)C(=O)NC(CCCN)C(=O)NCCCCCCCCCCCC(=O)NC(CCCN)C(N)=O` (stereo not drawn) [Compound B] (Decanoyl-[Orn][Orn][12Ado][Orn]-NH2; configuration not given here) the “adverse effects at highest tested dose” value [1] was “did not result in any visible adverse effect”, the “growth kinetics in presence vs absence of compound” value (K. pneumoniae 1287) was “practically identical curves” and the inhibition at 10 µM (Escherichia coli 25922 [2]; Escherichia coli, 25922, 80% mouse serum, 10 μM Compound B, 3 h, read-out: growth inhibition in mouse serum) was 74%. For the same compound, the “antibacterial effect in human serum” value (Escherichia coli 25922 [2]; 10 μM Compound B, absence of exogenous lysozyme) was “significant growth inhibition”, the “antibacterial effect in human serum” value (Escherichia coli 25922 [2]; 10 μM Compound B, presence of exogenous lysozyme (18 μM)) was “potent bactericidal effect” and the “growth inhibition in serum obtained from treated mice” value (Escherichia coli 25922 [2]; mouse serum obtained 1 hour after subcutaneous administration ([…]), 3 h incubation) was 80%. For the same compound, the “E. coli counts (final, from 4 log)” value (Escherichia coli 25922 [2]; mouse serum, 10 μM Compound B plus 18 μM lysozyme) was 1.7 log CFU/mL, the inhibition at 10 µM ([3]; Klebsiella pneumoniae, 1287, 80% mouse serum, 3 h, read-out: growth inhibition in mouse serum) was 48% and the “antibacterial effect in human serum” value ([3]; absence of exogenous lysozyme) was “significant growth inhibition”. For the same compound, the “antibacterial effect in human serum” value ([3]; presence of exogenous lysozyme (18 μM)) was “potent bactericidal effect”, the “animal survival after infection with pretreated bacteria” value (Escherichia coli 25922 [4]; [14]) was 40% and the survival rate (Escherichia coli 25922 [4]; neutropenic ICR mice infected i.p., lower dose administrated twice (1 and 6 hours after inoculation)) was 70%. For the same compound, the “mice protected from fatal sepsis (survival)” value (Escherichia coli 25922 [4]; neutropenic ICR mice infected i.p., s.c. single dose 1 hour after inoculation) was 40%, the “mice protected from developing sepsis” value (Escherichia coli 25922 [4]; neutropenic ICR mice, Compound B […] s.c. alone, 1 hour after infection) was 36% and the “H, hydrophobicity” value [5] was 43%. The MIC [6] was 50 µM (≈ 35.6 µg/mL), the MIC [7] was > 50 µM and the MIC (Escherichia coli ML35p) was > 50 µM. The MIC (Escherichia coli 25922 [8]) was > 50 µM, the MIC [9] was > 50 µM and the MIC [10] was > 50 µM. The MIC [11] was > 50 µM, the MIC [12] was 50 µM (≈ 35.6 µg/mL) and the MBC (E. coli) was > 50 µM. For the same compound, the “animal survival after infection with pretreated bacteria” value [13, 14] was 70%, the survival frequency ([13]; s.c. double doses) was 90% and the survival frequency ([13]; s.c. single dose) was 60%.
